Measured values from patent US20240246964A1 (Arbutus Biopharma Corporation, priority 2021, published 2024).

How the values were obtained:
[1] = target: PD-L1 His protein / PD-1 Fc protein (Homo sapiens (Human), UniProt Q9NZQ7); assay: HTRF Assay (PD-1/PD-L1 interaction); assay type: binding; conditions: PD-L1 His 6 nM, PD-1 Fc 6 nM
human PD-L1 = human PD-L1 (Homo sapiens (Human), UniProt Q9NZQ7); assay: T cell activation luciferase reporter cell culture system (T Cell Activation Assay); assay type: cell-based; conditions: luciferase reporter assay; PD-L1 aAPC/CHO-K1 cells with PD-1 effector Jurkat T cells
Sequence of human PD-L1 (Q9NZQ7 19-290): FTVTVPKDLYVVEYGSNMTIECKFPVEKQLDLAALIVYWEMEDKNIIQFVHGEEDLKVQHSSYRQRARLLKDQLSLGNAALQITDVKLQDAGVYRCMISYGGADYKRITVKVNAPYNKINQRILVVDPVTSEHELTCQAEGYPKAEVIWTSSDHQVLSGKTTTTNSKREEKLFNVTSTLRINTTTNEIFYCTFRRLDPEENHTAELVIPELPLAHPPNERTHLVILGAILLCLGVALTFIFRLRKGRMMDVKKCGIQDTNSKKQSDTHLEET

Sequence of PD-L1 His protein / PD-1 Fc protein (Q9NZQ7 19-238): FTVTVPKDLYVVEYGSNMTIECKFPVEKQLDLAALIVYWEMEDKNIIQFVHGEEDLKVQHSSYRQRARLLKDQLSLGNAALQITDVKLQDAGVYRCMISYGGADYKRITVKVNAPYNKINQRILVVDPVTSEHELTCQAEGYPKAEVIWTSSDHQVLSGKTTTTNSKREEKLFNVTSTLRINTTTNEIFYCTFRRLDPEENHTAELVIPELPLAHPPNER

COc1nc(-c2cccc(-c3ccnc(-c4ccc(CNC5CCN(C(C)=O)CC5)c(F)c4)c3Cl)c2Cl)ccc1CNC1CCN(C(C)=O)CC1 [Example 282, 1-(4-(((6-(3-(2-(4-(((1-Acetylpiperidin-4-yl)amino)methyl)-3-fluorophenyl)-3-chloropyridin-4-yl)-2-chlorophenyl)-2-methoxypyridin-3-yl)methyl)amino)piperidin-1-yl)ethan-1-one]
IC50 [1]: 1.56 nM
EC50 (human PD-L1): 85.3 nM

COc1cc(-c2nccc(-c3cccc(-c4ccc(CNCCN5CCCC5=O)c(OC)n4)c3Cl)c2Cl)ccc1CNCCN1CCCC1=O [Example 303, 1-(2-(((6-(2-Chloro-3-(3-chloro-2-(3-methoxy-4-(((2-(2-oxopyrrolidin-1-yl)ethyl)amino)methyl)phenyl)pyridin-4-yl)phenyl)-2-methoxypyridin-3-yl)methyl)amino)ethyl)pyrrolidin-2-one]
IC50 [1]: 2.83 nM
EC50 (human PD-L1): 30.8 nM

COc1cc(-c2nccc(-c3cccc(-c4ccc(CN5CC6(CNC(=O)C6)C5)c(OC)n4)c3Cl)c2Cl)cnc1CNC1CCOCC1 [Compound 548, 2-((6-(2-Chloro-3-(3-chloro-5′-methoxy-6′-(((tetrahydro-2H-pyran-4-yl)amino)methyl)-[2,3′-bipyridin]-4-yl)phenyl)-2-methoxypyridin-3-yl)methyl)-2,6-diazaspiro[3.4]octan-7-one]
IC50 [1]: 1.13 nM
EC50 (human PD-L1): 75.9 nM

CNCc1ccc(-c2cccc(-c3ccnc(-c4ccc(CN5CC[C@H](C(=O)O)C5)c(OC)c4)c3Cl)c2Cl)nc1OC [Compound 226, (S)-1-(4-(3-chloro-4-(2-chloro-3-(6-methoxy-5-((methylamino)methyl)pyridin-2-yl)phenyl)pyridin-2-yl)-2-methoxybenzyl)pyrrolidine-3-carboxylic acid]
IC50 [1]: 0.27 nM
EC50 (human PD-L1): 62.7 nM

COc1nc(-c2ccnc(-c3cccc4c3CC[C@@H]4Oc3nc(OC)c(CNC[C@H](C)O)cc3C(F)(F)F)c2Cl)ccc1CNC[C@@H]1CCC(=O)N1 [Compound 128, (S)-5-((((3′-chloro-2′-((S)-1-((5-((((S)-2-hydroxypropyl)amino)methyl)-6-methoxy-3-(trifluoromethyl)pyridin-2-yl)oxy)-2,3-dihydro-1H-inden-4-yl)-6-methoxy-[2,4′-bipyridin]-5-yl)methyl)amino)methyl)pyrrolidin-2-one]
IC50 [1]: 0.542 nM
EC50 (human PD-L1): 9.11 nM

COc1cc(-c2nccc(-c3cccc(-c4ccc(CN5CC6(CNC(=O)C6)C5)c(OC)n4)c3Cl)c2Cl)ccc1CNC1CCN(C(C)=O)CC1 [Example 332, 2-((6-(3-(2-(4-(((1-acetylpiperidin-4-yl)amino)methyl)-3-methoxyphenyl)-3-chloropyridin-4-yl)-2-chlorophenyl)-2-methoxypyridin-3-yl)methyl)-2,6-diazaspiro[3.4]octan-7-one]
IC50 [1]: 1.8 nM
EC50 (human PD-L1): 12.4 nM

COc1cc(-c2nccc(-c3cccc(NC(=O)c4cn(C)c(=O)n(C)c4=O)c3Cl)c2Cl)ccc1CNC[C@@H]1CCC(=O)N1 [Example 657, (S)—N-(2-Chloro-3-(3-chloro-2-(3-methoxy-4-((((5-oxopyrrolidin-2-yl)methyl)amino)methyl)phenyl)pyridin-4-yl)phenyl)-1,3-dimethyl-2,4-dioxo-1,2,3,4-tetrahydropyrimidine-5-carboxamide]
IC50 [1]: 0.14 nM
EC50 (human PD-L1): 33.3 nM

COc1cc(-c2ncnc(-c3cccc(-c4ccc(CN[C@H]5C[C@H](O)C5)c(OC)n4)c3Cl)c2Cl)ccc1CN[C@H]1C[C@H](O)C1 [Example 593, (1r,3r)-3-(((6-(2-Chloro-3-(5-chloro-6-(4-((((1r,3r)-3-hydroxycyclobutyl)amino)methyl)-3-methoxyphenyl)pyrimidin-4-yl)phenyl)-2-methoxypyridin-3-yl)methyl)amino)cyclobutan-1-ol]
IC50 [1]: 0.16 nM
EC50 (human PD-L1): 104 nM

COc1cc(-c2nccc(-c3cccc(-c4ccc(CNC5CCN(C(C)=O)CC5)c(OC)n4)c3Cl)c2Cl)ccc1CN[C@H]1CCOC1=O [Example 340, (S)-3-((4-(4-(3-(5-(((1-Acetylpiperidin-4-yl)amino)methyl)-6-methoxypyridin-2-yl)-2-chlorophenyl)-3-chloropyridin-2-yl)-2-methoxybenzyl)amino)dihydrofuran-2(3H)-one]
IC50 [1]: 0.1 nM
EC50 (human PD-L1): 523 nM

COc1cc(-c2nccc(-c3cccc(-c4ccc(CNC[C@@H]5CCC(=O)N5)c(OC)n4)c3C(F)(F)F)c2Cl)ccc1CNC[C@@H]1CCC(=O)N1 [Example 610, (S)-5-((((6-(3-(3-Chloro-2-(3-methoxy-4-(((((S)-5-oxopyrrolidin-2-yl)methyl)amino)methyl)phenyl)pyridin-4-yl)-2-(trifluoromethyl)phenyl)-2-methoxypyridin-3-yl)methyl)amino)methyl)pyrrolidin-2-one]
IC50 [1]: 1.52 nM
EC50 (human PD-L1): 2110 nM

COc1nc(-c2cccc(-c3ccnc(-c4ccc5c(c4)CCC[C@@H]5NC[C@@H]4CCC(=O)N4)c3Cl)c2Cl)ccc1CNC[C@@H]1CCC(=O)N1 [Compound 184, (S)-5-((((6-(2-chloro-3-(3-chloro-2-((S)-5-((((S)-5-oxopyrrolidin-2-yl)methyl)amino)-5,6,7,8-tetrahydronaphthalen-2-yl)pyridine-4-yl)phenyl)-2-methoxypyridin-3-yl)methyl)amino)methyl)pyridine1335ne-2-one]
IC50 [1]: 15.5 nM
EC50 (human PD-L1): 80.4 nM

COc1nc(-c2cccc(-c3ccnc(-c4cc(OC)c5nc(CN6CC7(C6)CN(C(C)=O)C7)cn5c4)c3Cl)c2Cl)ccc1CNC[C@@H]1CCC(=O)N1 [Example 319, (S)-5-((((6-(3-(2-(2-((6-Acetyl-2,6-diazaspiro[3.3]heptan-2-yl)methyl)-8-methoxyimidazo[1,2-a]pyridin-6-yl)-3-chloropyridin-4-yl)-2-chlorophenyl)-2-methoxypyridin-3-yl)methyl)amino)methyl)pyrrolidin-2-one]
IC50 [1]: 0.767 nM
EC50 (human PD-L1): 38.3 nM

COc1nc(-c2ccnc(-c3cccc(NC(=O)c4ccc(CNCCO)cn4)c3C)c2Cl)ccc1CNC1CCOCC1 [Example 766, N-(3-(3′-Chloro-6-methoxy-5-(((tetrahydro-2H-pyran-4-yl)amino)methyl)-[2,4′-bipyridin]-2′-yl)-2-methylphenyl)-5-(((2-hydroxyethyl)amino)methyl)picolinamide]
IC50 [1]: 0.32 nM
EC50 (human PD-L1): 152 nM

COc1cc(-c2nccc(-c3cccc(-c4ccc5c(CNC6CCN(C(C)=O)CC6)cn(C)c5n4)c3Cl)c2Cl)ccc1CN1CC2(CNC(=O)C2)C1 [Compound 579, 2-(4-(4-(3-(3-(((1-Acetylpiperidin-4-yl)amino)methyl)-1-methyl-1H-pyrrolo[2,3-b]pyridin-6-yl)-2-chlorophenyl)-3-chloropyridin-2-yl)-2-methoxybenzyl)-2,6-diazaspiro[3.4]octan-7-one]
IC50 [1]: 0.3 nM
EC50 (human PD-L1): 101 nM

COc1nc(-c2cccc(-c3nccc(-c4ccc(CN5CC[C@H](O)C5)c(OC)n4)c3Cl)c2Cl)ccc1CN1CC[C@H](O)C1 [Example 773, (S)-1-((3′-Chloro-2′-(2-chloro-3-(5-(((S)-3-hydroxypyrrolidin-1-yl)methyl)-6-methoxypyridin-2-yl)phenyl)-6-methoxy-[2,4′-bipyridin]-5-yl)methyl)pyrrolidin-3-ol]
IC50 [1]: 1.03 nM
EC50 (human PD-L1): 10.6 nM
